Laboratory results: PubChem BioAssay (NCI)
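Protocol summary: plate cells (96-well), add compound at 5 concentrations, incubate 48 h, interpolate endpoints linearly. At the GI50, growth is halved. TGI marks complete inhibition of growth.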 Where a SMILES comes first, the peptide text is derived from it. The star is where a group is joined. Cbz = O=C(OCc1ccccc1)*; CH2Cl = ClC*

Columns and labels:
Assay in all cases: growth of human tumour cells (NCI), 48 h
BT-549 breast = tested on: BT-549 breast
T-47D breast = tested on: T-47D breast
DLD-1 colon = tested on: DLD-1 colon
DMS 114 small cell lung = tested on: DMS 114 small cell lung
M19-MEL melanoma = tested on: M19-MEL melanoma
MDA-N = tested on: MDA-N
LXFL 529 NSCLC = tested on: LXFL 529 NSCLC
RXF-631 renal = tested on: RXF-631 renal

Row | Structure (SMILES) | GI50 (BT-549 breast) [µM] | TGI (BT-549 breast) [µM] | GI50 (T-47D breast) [µM] | TGI (T-47D breast) [µM] | TGI (DLD-1 colon) [µM] | TGI (DMS 114 small cell lung) [µM] | TGI (M19-MEL melanoma) [µM] | TGI (MDA-N) [µM] | TGI (LXFL 529 NSCLC) [µM] | TGI (RXF-631 renal) [µM]
1 | Cc1nn(-c2ccc(Cl)cc2)c2nc3c(nc12)C(=O)c1ccccc1-3 | > 100 | > 100 | 17.4 | 65.6 | – | – | – | – | – | –
2 | Nc1nc(/C=C\c2ccc([N+](=O)[O-])s2)nc(N2CCCC2)n1 | 7.17 | 20.9 | 1.68 | 14.1 | – | – | – | – | – | –
3 | CNCC#Cc1c(F)ccc2c1/C(=C/c1[nH]ccc1OC)C(=O)N2 | 0.338 | 1.54 | 0.671 | 4.36 | – | – | – | – | – | –
4 | C#C[C@]1(O)CCC2C3CCc4cc(O)ccc4C3CC[C@@]21C (some centres undefined) | 4.64 | 18.4 | 6.91 | 24.4 | – | – | – | – | – | –
5 | COc1cc2c(c(OC)c1OC)-c1ccc(SC)c(=O)cc1C(NC=O)CC2 (centres undefined) | – | > 100 | – | > 100 | > 100 | < 0.01 | > 100 | < 0.01 | – | –
6 | Cc1ccc(NC(=O)CC2CC2)cc1-c1ccc(C(=O)NCC2CC2)cc1 | > 25 | > 25 | > 17.3 | > 25 | – | – | – | – | – | –
7 | CS(=O)(=O)CCNCc1nc(-c2ccc3ncnc(Nc4ccc(OCc5cccc(C(F)(F)F)c5)cc4)c3c2)cs1 | > 25 | > 25 | 5.42 | > 25 | – | – | – | – | – | –
8 | COc1ccc(NC(=O)/C(Cc2cc(=O)oc3cc(O)ccc23)=N\NC(C)(C)C)c(OC)c1 | – | – | – | – | – | – | > 100 | – | > 100 | –
9 | COc1cc(-n2cc(-c3ccc(F)cc3)[nH]c2=O)cc(OC)c1OC | 83.4 | > 100 | > 100 | > 100 | – | – | – | – | – | –
10 | COc1cc(F)ccc1-c1ncnc(Nc2cccc(CS(C)(=N)=O)c2)n1 (centres undefined) | 1.07 | > 100 | – | – | – | – | – | – | – | –
11 | O=C(CC1(O)C(=O)N(Cc2ccccc2)c2ccc(F)cc21)c1ccc(C(=O)NCC2CCC3(CC2)OOC2(CCCCC2)OO3)cc1 (centres undefined) | 1.88 | 4.28 | 0.843 | 3.11 | – | – | – | – | – | –
12 | COc1ccc2c(c1)C(=O)c1c-2c(N2CCN(C(=O)CNCCNCCO)CC2)nc2ccccc12 | 3.67 | 12.6 | 2.49 | 6.55 | – | – | – | – | – | –
13 | [N-]=[N+]=N[C@H]1C[C@@H](CO)O[C@H]1n1cnc2c(N)ncnc21 | – | – | – | – | > 100 | > 100 | > 100 | – | > 100 | –
14 | C=C(C)[C@@H]1CC[C@]2(C)[C@H](CC=C3[C@@H]4CC(C)(C)CC[C@]4(C(N)=O)CC[C@]32C)[C@@]1(C)CCC#N | 2.09 | 5.53 | 3.27 | > 100 | – | – | – | – | – | –
15 | NC(=O)C12CC3CC(CC(F)(C3)C1)C2 | – | – | – | – | > 100 | > 100 | > 100 | – | > 100 | –
16 | Cc1[nH]c2ccccc2c1C(=O)/C=C/c1ccccc1O | – | – | – | – | > 100 | – | > 100 | – | > 100 | –
17 | NCCNc1c2c(c(NCCN)c3[nH]ccc13)C(=O)c1ccccc1C2=O | 1.22 | 2.62 | 1.63 | > 100 | – | – | – | – | – | –
18 | CC1c2c(Cl)nc3ccccc3c2Oc2c1c(Cl)nc1ccccc21 | – | – | – | – | > 100 | > 100 | > 100 | – | > 100 | –

Row | Structure (SMILES) | GI50 (BT-549 breast) [µM] | TGI (BT-549 breast) [µM] | GI50 (T-47D breast) [µM] | TGI (T-47D breast) [µM] | TGI (DLD-1 colon) [µM] | TGI (DMS 114 small cell lung) [µM] | TGI (M19-MEL melanoma) [µM] | TGI (MDA-N) [µM] | TGI (LXFL 529 NSCLC) [µM] | TGI (RXF-631 renal) [µM]
19 | COc1cc2c3c(n(C)c(=O)c2cc1OC)-c1cc2c(cc1/C3=C\CN)OCO2 | – | > 100 | 0.0176 | 0.639 | – | – | – | – | – | –
20 | O=C(/C=C/c1cccc2ccccc12)c1ccccc1Cl | – | – | – | – | 24 | 27.6 | – | – | 26.8 | 41.9
21 | O=C(CSc1nc2ccccc2nc1-c1ccccc1)Nc1ccc(F)cc1 | 24.6 | 66.5 | 19.2 | 99.4 | – | – | – | – | – | –
22 | CC1CN(C(=O)CN2CCC(CCCCN(C)C)CC2)c2ccccc2NC1=O (centres undefined) | – | – | – | – | > 100 | > 100 | > 100 | – | > 100 | > 100
23 | Cc1c2c(C#N)nccc2c(C)c2c1c1ccccc1n2Cc1ccccc1 | – | – | – | > 100 | – | – | – | > 100 | – | –
24 | COc1cc(Cn2c(-c3ccccc3)c(Cl)c3c2-c2oncc2CC3)cc(OC)c1 | – | – | 17.5 | > 100 | – | – | – | – | – | –
25 | COC1(OC)C(N(C)C)=C(Cl)C(=O)/C1=C/C=O | – | – | – | – | > 100 | > 100 | > 100 | – | > 100 | –
26 | COc1cc2c(cc1OCCCNC(=O)c1cccc3c(=O)c4ccccc4[nH]c13)N=C[C@@H]1CCCN1C2=O | < 0.01 | < 0.0437 | < 0.01 | 29.6 | – | – | – | – | – | –
27 | [Cl][Hg][c]1cc[c]([Hg][Cl])o1 | 1.99 | 8.67 | 1.18 | 3.66 | – | – | – | – | – | –
28 | O=C(Nc1ccncc1)C(=O)c1cn(S(=O)(=O)c2ccc(F)cc2)c2ccccc12 | 1.58 | 39.9 | 2.24 | 61 | – | – | – | – | – | –
29 | Cc1cc(Cl)ccc1NC(=O)C(=O)Cc1nc2ccccc2o1 | – | – | – | – | > 100 | > 100 | > 100 | – | > 100 | > 100
30 | CCOC(=O)C(=[N+]=[N-])[Si](C)(C)C | – | – | – | – | > 100 | > 100 | > 100 | – | – | –
31 | CCSc1ncnc2c1ncn2C1OC(CO)C(O)C1O (centres undefined) | 0.729 | > 44.2 | 1.69 | > 48.9 | – | – | – | – | – | –
32 | CCOc1ccc(NC(=O)C(=O)CC(=O)c2c(C)n([O-])c3ccccc3[n+]2=O)cc1 | – | – | – | – | – | > 100 | > 100 | – | > 100 | > 100
33 | COc1c(OC[C@H](O)CN2CCOCC2)ccc2c3n(c(=NC(=O)c4cccnc4C)nc12)CCN3 | 0.365 | 46.6 | 0.0315 | 0.361 | – | – | – | – | – | –
34 | O=C(O)Cc1cc(Cl)ccc1O | – | > 100 | – | > 100 | – | – | – | > 100 | – | –
35 | CC(C)CC(NC(=O)OCc1ccccc1)C(=O)NC(Cc1ccccc1)C(=O)CCl (stereo not drawn) (Cbz-Leu-Phe-CH2Cl; configuration not given here) | – | 6.16 | – | 4.89 | – | – | – | 3.19 | – | –
36 | CC(=O)c1sc(Nc2nnc(-c3ccc(-c4nnc(Nc5nc(C)c(C(C)=O)s5)o4)cc3)o2)nc1C | – | – | – | – | > 100 | > 100 | – | – | > 100 | –
